“And” between values parts separate entries of the source, which are not always exact repeats. Equal values may be shown once. Read-outs that look alike come from different tables or passages of the source.
Legend:
[1] = system: HCC827 cells; test: Cell proliferation / combination dose matrix assay (CellTiter-Glo); assay type: cell-based; conditions: Homo sapiens, HCC827, HCC827, EGFR ex19del
From the text: Human cancer cell lines originated from the CCLE (Cancer Cell Line Encyclopedia) authenticated by single-nucleotide polymorphism analysis and tested for mycoplasma infection using a PCR-based detection technology (IDEXX BioAnalytics) when CCLE was established in 2012. All cell lines used were directly thawed from the CCLE collection stock. […] Cell lines were used within 15 passages of thawing and continuously cultured for less than 6 months.

[2] = system: PC14 cells; test: Immunoblot of PC14 cell lysates (p-ERK, c-PARP, BIM); assay type: cell-based, human; conditions: nazartinib 0.1 or 0.3 μM, 3 μM TNO155 or combination, 4 h or 24 h
Method: For immunoblotting: Cells (200,000 to 750,000) in 2 mL growth media were seeded in 6-well plates (Corning, #3506). After 24 hours, cells were treated with compounds or growth factors at the indicated concentrations and duration. Cells were lysed on ice in RIPA buffer (Boston Bioproduct #BP-115) supplemented with 1 mM EDTA and Halt Protease and Phosphatase Inhibitor Cocktail (Thermo Fisher Scientific #1861281). Lysates were centrifuged at 14,000 rpm at 4° C. for 15 minutes and protein concentrations were determined using BCA protein assay (Thermo Fisher Scientific). […] The bound primary antibodies were visualized using Goat anti-rabbit IgG secondary antibody conjugated with Alexa Fluor 700 and goat anti-mouse IgG secondary antibody conjugated with IRDye 800 CW and scanning with an Odyssey Infrared Imager System (Li-Cor). […]

[3] = system: PC14 cells; test: Cell proliferation / combination dose matrix assay (CellTiter-Glo); assay type: cell-based, human; conditions: for IC50: Homo sapiens, PC-14, PC14, EGFR ex19del
Method: (§1) Human cancer cell lines originated from the CCLE (Cancer Cell Line Encyclopedia) authenticated by single-nucleotide polymorphism analysis and tested for mycoplasma infection using a PCR-based detection technology (IDEXX BioAnalytics) when CCLE was established in 2012. All cell lines used were directly thawed from the CCLE collection stock. All cell lines were cultured in RPMI Medium (ThermoFisher Scientific) except HT-29 (McCoy's 5A), RKO (MEMα), MDST8 (DMEM), A-427 (MEMα) and MIA PaCA-2 (DMEM), supplemented with 10% FBS (VWR). Cell lines were used within 15 passages of thawing and continuously cultured for less than 6 months. For combination dose matrix assay, 2000 to 3000 cells were seeded in 96-well plates in 80 μL media per well. On the second day, serial dilutions of the two combination agents were subsequently added, each in 20 μL media at 6× of final indicated concentrations. 3 days later, cell viability was measured by the CellTiter-Glo Assay (Promega #G7573). The mean and standard deviation (n=3) of percentages of inhibition (relative to the DMSO-treated control) of compound-treated cells and synergy scores between the two compounds were determined. […] Statistical analyses were performed and curve fit and IC50 values were generated using GraphPad Prism 8 software. Statistical significance was determined using unpaired, paired student t test, or Mann-Whitney test. Significance was set at p=0.05. […] After 3 days (PC14) or 6 days (NCI-H1975), cell proliferation was measured using the Cell Titer-Glo® assay and luminescent signals of each dose combination were normalized to that of the DMSO (vehicle control) group.

[4] = system: NCI-H1975 cells; test: as above; assay type: cell-based, human; conditions: for IC50: Homo sapiens, NCI-H1975, EGFR L858R/T790M
Method: as §1

[5] = target: CYP3A4 (Homo sapiens, UniProt P08684); test: CYP3A4 interaction / metabolism
Sequence of CYP3A4 (P08684 whole entry): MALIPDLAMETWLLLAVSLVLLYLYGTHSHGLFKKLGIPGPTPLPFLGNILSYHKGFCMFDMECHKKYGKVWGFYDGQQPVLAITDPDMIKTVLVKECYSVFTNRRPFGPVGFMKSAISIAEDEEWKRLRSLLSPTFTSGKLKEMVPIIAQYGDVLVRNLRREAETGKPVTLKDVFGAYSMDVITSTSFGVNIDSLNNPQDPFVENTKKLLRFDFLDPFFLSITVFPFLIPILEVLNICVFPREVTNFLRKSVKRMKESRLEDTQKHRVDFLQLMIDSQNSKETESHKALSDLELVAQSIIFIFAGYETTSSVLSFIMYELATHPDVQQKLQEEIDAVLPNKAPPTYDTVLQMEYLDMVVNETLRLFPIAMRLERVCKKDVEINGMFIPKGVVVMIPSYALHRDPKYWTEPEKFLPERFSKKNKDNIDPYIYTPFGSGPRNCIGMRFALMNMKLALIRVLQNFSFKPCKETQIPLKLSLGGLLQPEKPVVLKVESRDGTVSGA

[6] = system: NCI-H3255 cells; test: Cell proliferation / combination dose matrix assay (CellTiter-Glo); assay type: cell-based; conditions: Homo sapiens, NCI-H3255, NCI-H3255, EGFR L858R
Method: (§2) Human cancer cell lines originated from the CCLE (Cancer Cell Line Encyclopedia) authenticated by single-nucleotide polymorphism analysis and tested for mycoplasma infection using a PCR-based detection technology (IDEXX BioAnalytics) when CCLE was established in 2012. All cell lines used were directly thawed from the CCLE collection stock. All cell lines were cultured in RPMI Medium (ThermoFisher Scientific) except HT-29 (McCoy's 5A), RKO (MEMα), MDST8 (DMEM), A-427 (MEMα) and MIA PaCA-2 (DMEM), supplemented with 10% FBS (VWR). Cell lines were used within 15 passages of thawing and continuously cultured for less than 6 months.
(§3) For combination dose matrix assay, 2000 to 3000 cells were seeded in 96-well plates in 80 μL media per well. On the second day, serial dilutions of the two combination agents were subsequently added, each in 20 μL media at 6× of final indicated concentrations. 3 days later, cell viability was measured by the CellTiter-Glo Assay (Promega #G7573). The mean and standard deviation (n=3) of percentages of inhibition (relative to the DMSO-treated control) of compound-treated cells and synergy scores between the two compounds were determined. Synergy scores greater than 2 are considered to have synergistic rather than additive effects.
(§4) Statistical analyses were performed and curve fit and IC50 values were generated using GraphPad Prism 8 software. Statistical significance was determined using unpaired, paired student t test, or Mann-Whitney test. Significance was set at p=0.05.

[7] = system: HCC2279 cells; test: as above; assay type: cell-based; conditions: Homo sapiens; HCC2279, EGFR ex19del
Method: as §2, §3, §4

[8] = system: HCC4006 cells; test: as above; assay type: cell-based; conditions: Homo sapiens; HCC4006, EGFR ex19del
Method: as §2, §3, §4

[9] = system: NCI-H1650 cells; test: as above; assay type: cell-based; conditions: Homo sapiens; NCI-H1650, EGFR ex19del
Method: as §2, §3, §4

[10] = system: patients with EGFRmutated NSCLC; test: First-in-human study of nazartinib (CEGF816X2101); assay type: in vivo; conditions: 75 mg to 350 mg QD
Method: Nazartinib has been studied in 7 clinical trials.
(§5) The starting dose of nazartinib in this study is 150 mg QD, dosed continuously. In CEGF816X2101, the first-in-human study of nazartinib, doses of nazartinib from 75 mg daily to 350 mg daily were investigated. […] Thus the starting dose of 20 mg QD, 2 weeks on/1 week off provides an adequate tolerability margin for combination with nazartinib 150 mg QD.

[11] = Adverse events of decreased left ventricular ejection fraction; design: species or system human; conditions: in vivo
From the text: Patients with EGFR-mutant NSCLC have a high disease control rate with EGFR inhibitors (e.g., erlotinib, gefitinib, osimertinib), but resistance invariably develops. Resistance mechanisms are heterogeneous, but commonly result in restoration of mutant EGFR signaling and/or amplification or overexpression of RTKs other than EGFR (such as MET) or of their ligands.

[12] = system: PC9 cells; test: Cell proliferation / combination dose matrix assay (CellTiter-Glo); assay type: cell-based, human
Method: as §2, §3, §4

[13] = Tagrisso prescribing information; cited from earlier work
[14] = system: EGFR L858R model 29667HXXTM; conditions: osimertinib 10 mpk daily, TNO155 10 mpk BID
[15] = system: EGFR L858R model 29665HXXTM; conditions: osimertinib 10 mpk daily, TNO155 10 mpk BID
[16] = system: EGFR L858R model 29666HXXTM; conditions: osimertinib 10 mpk daily, TNO155 10 mpk BID
[17] = system: EGFR-dependent DETROIT-562 cancer cell line; test: In vivo SHP2 inhibition and efficacy, DETROIT-562 model; conditions: orally-administered, 20 mg/kg
[18] = system: pERK in KYSE-520 (esophageal squamous cell carcinoma) cells; test: in vitro pERK inhibition; assay type: cell-based; conditions: Homo sapiens
[19] = system: KYSE-520 (esophageal squamous cell carcinoma) cells; test: in vitro antiproliferation; assay type: cell-based; conditions: Homo sapiens
[20] = mice
[21] = system: DETROIT-562 (pharyngeal squamous cell carcinoma) cells; test: in vitro antiproliferation; assay type: cell-based; conditions: Homo sapiens
[22] = TNO155 regimens tested in patients; assay type: in vivo, human; conditions: 60 mg QD 2 weeks on/1 week off and 40 mg QD 3 weeks on/1 week off
Method: as §5

[23] = system: pERK in DETROIT-562 (pharyngeal squamous cell carcinoma) cells; test: in vitro pERK inhibition; assay type: cell-based; conditions: Homo sapiens
[24] = Homo sapiens, PC-9, PC9, EGFR ex19del

Structure (SMILES) | p-ERK levels [2] | IC50 [3] | IC50 [4] | IC50 [7] | IC50 [8] | IC50 [9] | IC50 [12, 24] | anti-tumor activity (tumor volume) [14] | anti-tumor activity (tumor volume) [15] | anti-tumor activity (tumor volume) [16] | further results
Cc1cc(C(=O)Nc2nc3cccc(Cl)c3n2[C@@H]2CCCCN(C(=O)/C=C/CN(C)C)C2)ccn1 [Nazartinib, (R,E)-N-(7-chloro-1-(1-(4-(dimethylamino)but-2-enoyl)azepan-3-yl)-1H-benzo[d]imidazol-2-yl)-2-methylisonicotinamide] | rebound of p-ERK levels was observed after 24 h | 0.05 µM | 0.17 µM | > 3 µM | 0.06 µM | > 3 µM | 0.01 µM | – | – | – | IC50 [1]: 0.04 µM; metabolism [5]: primarily metabolized by CYP3A4; IC50 [6]: 0.01 µM; anti-tumor efficacy [10]: anti-tumor efficacy was observed at all doses; maximum tolerated dose [10]: not established; adverse events of decreased left ventricular ejection fraction [11]: not associated with adverse events of decreased left ventricular ejection fraction
C=CC(=O)Nc1cc(Nc2nccc(-c3cn(C)c4ccccc34)n2)c(OC)cc1N(C)CCN(C)C [osimertinib, reference compound] | – | – | – | – | – | – | – | modest | strong | only transient efficacy | adverse events of decreased left ventricular ejection fraction [13]: Such events have been described
C[C@@H]1OCC2(CCN(c3cnc(Sc4ccnc(N)c4Cl)c(N)n3)CC2)[C@@H]1N [TNO155, (3S,4S)-8-(6-amino-5-((2-amino-3-chloropyridin-4-yl)thio)pyrazin-2-yl)-3-methyl-2-oxa-8-azaspiro[4.5]decan-4-amine] | effectively reduced p-ERK levels at 4 h but also suffered a rebound at 24 h | 5.01 µM | > 10 µM | > 10 µM | > 10 µM | > 10 µM | < 1.5 µM | minimal activity | minimal activity | effectively slowed down the tumor growth | decrease in DUSP6 mRNA transcript [17]: approximately 95%; regression ([17]; twice-daily schedule): 47%; IC50 [18]: 8 nM and 0.0034 µg/mL; single agent activity ([3]; PC14, low concentrations, e.g. 0.124 μM): lacks single agent activity; single agent activity ([4]; NCI-H1975, low concentrations, e.g. 0.124 μM): lacks single agent activity; IC50 [19]: 0.1 µM; half-life [20]: short half-life; maximum tolerated dose ([20]; twice a day (BID)): 20 mg per kilogram body weight (mpk); IC50 [21]: 0.47 µM; tolerability [22]: tolerated; CYP3A4 induction / inhibition ([5]; human): neither an inducer nor inhibitor of CYP3A4; IC50 [23]: 0.035 µM; IC50 ([12]; PC9, EGFR ex19del): 1.46 µM

Source: patent US20230172928A1 (priority 2020, published 2023)
